Test results taken from PubChem BioAssay (NCI).
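48-hour exposure; five concentrations; linearly interpolated endpoints. TGI denotes the concentration required for complete inhibition of growth.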

Legend:
Experiment in all cases: NCI-60 cell line screen, 48 h
UO-31 renal = tested on: UO-31 renal
BT-549 breast = tested on: BT-549 breast
SK-MEL-2 melanoma = tested on: SK-MEL-2 melanoma
HOP-62 NSCLC = tested on: HOP-62 NSCLC
IGROV1 ovarian = tested on: IGROV1 ovarian
SNB-19 CNS = tested on: SNB-19 CNS
K-562 leukemia = tested on: K-562 leukemia
HT29 colon = tested on: HT29 colon
SK-MEL-5 melanoma = tested on: SK-MEL-5 melanoma
HCT-15 colon = tested on: HCT-15 colon
ACHN renal = tested on: ACHN renal
MDA-MB-231 breast = tested on: MDA-MB-231 breast
MCF7 breast = tested on: MCF7 breast
SK-MEL-28 melanoma = tested on: SK-MEL-28 melanoma
NCI/ADR-RES ovarian = tested on: NCI/ADR-RES ovarian
COLO 205 colon = tested on: COLO 205 colon
MOLT-4 leukemia = tested on: MOLT-4 leukemia
NCI-H23 lung = tested on: NCI-H23 lung
DU-145 prostate = tested on: DU-145 prostate
HCT-116 colon = tested on: HCT-116 colon
SW-620 colon = tested on: SW-620 colon
PC-3 prostate = tested on: PC-3 prostate
OVCAR-4 ovarian = tested on: OVCAR-4 ovarian
NCI-H226 lung = tested on: NCI-H226 lung
SNB-75 CNS = tested on: SNB-75 CNS
786-0 renal = tested on: 786-0 renal
UACC-62 melanoma = tested on: UACC-62 melanoma
SF-539 CNS = tested on: SF-539 CNS
A498 renal = tested on: A498 renal
CAKI-1 renal = tested on: CAKI-1 renal
CCRF-CEM leukemia = tested on: CCRF-CEM leukemia
HCC-2998 colon = tested on: HCC-2998 colon
A549 NSCLC = tested on: A549 NSCLC
SN12C renal = tested on: SN12C renal
HS 578T breast = tested on: HS 578T breast
U251 CNS = tested on: U251 CNS
SK-OV-3 ovarian = tested on: SK-OV-3 ovarian
SR leukemia = tested on: SR leukemia
HL-60(TB) leukemia = tested on: HL-60(TB) leukemia
RPMI-8226 leukemia = tested on: RPMI-8226 leukemia
NCI-H522 lung = tested on: NCI-H522 lung
SF-268 CNS = tested on: SF-268 CNS
TK-10 renal = tested on: TK-10 renal
NCI-H460 lung = tested on: NCI-H460 lung
MDA-MB-435 = tested on: MDA-MB-435
EKVX NSCLC = tested on: EKVX NSCLC
LOX IMVI melanoma = tested on: LOX IMVI melanoma
OVCAR-3 ovarian = tested on: OVCAR-3 ovarian
UACC-257 melanoma = tested on: UACC-257 melanoma
OVCAR-8 ovarian = tested on: OVCAR-8 ovarian
T-47D breast = tested on: T-47D breast
OVCAR-5 ovarian = tested on: OVCAR-5 ovarian
MDA-N = tested on: MDA-N
MALME-3M melanoma = tested on: MALME-3M melanoma
RXF 393 renal = tested on: RXF 393 renal
M14 melanoma = tested on: M14 melanoma
SF-295 CNS = tested on: SF-295 CNS
KM12 colon = tested on: KM12 colon
HOP-92 NSCLC = tested on: HOP-92 NSCLC

Measured: TGI

O=C1c2ccccc2C(=O)c2c(NCC(O)CO)ccc(NCC(O)CO)c21 (configuration not stated)
94.8 µM: SK-MEL-2 melanoma
71.2 µM: UO-31 renal
not listed: RXF 393 renal | M14 melanoma | SF-295 CNS | KM12 colon | HOP-92 NSCLC
> 100 µM: all other assays above

CC(=O)c1ccccc1NP(=O)(c1ccccc1)c1ccccc1
60.8 µM: SK-OV-3 ovarian
34.4 µM: COLO 205 colon
87.7 µM: HL-60(TB) leukemia
62.8 µM: RPMI-8226 leukemia
not listed: NCI-H226 lung | SNB-75 CNS | HOP-92 NSCLC
> 100 µM: all other assays above

COc1ccc(C2SC(N)=Nc3c2c(C)nn3C(=O)c2ccncc2)cc1OC (configuration not stated)
not listed: UO-31 renal | A498 renal
> 10 µM: all other assays above

Cc1ccc2c(c1)C(=S)N1CSCC1c1nncn1-2 (configuration not stated)
not listed: NCI-H23 lung | SF-539 CNS | HL-60(TB) leukemia | HOP-92 NSCLC
> 100 µM: all other assays above
